Experimental data: patent US20260297029A1, “ALKOXY AND CARBAMOYL QUATERNARY AMINE SALTS AS PRODRUGS OF TRYPTAMINES” (priority 2023, published 2026)
In brackets after ≈: the same amount, converted by molar mass. Like-named read-outs stand apart in the source and are kept apart here.

How the values were obtained:
physchem [1] = type: physicochemical
Protocol: The half-life of the compounds was measured in PBS (pH 6.5), simulated gastric fluid (SGF) with pepsin, and SGF without pepsin.

in vitro = in vitro ADME; details: for Remaining Percentage / remaining at 0.25 h / remaining at 0.5 h / remaining at 1 h / remaining at 2 h: mouse plasma; for Remaining Percentage: 0 min; for remaining at 0.25 h: 15 min; for remaining at 0.25 h / remaining at 0.5 h / remaining at 1 h / remaining at 2 h: read-out: Remaining Percentage; for remaining at 0.5 h: 30 min; for remaining at 1 h: 60 min; for remaining at 2 h: 120 min; for half-life: mouse, plasma
serotonin receptors = details: cited from earlier work
physchem [2] = type: physicochemical; details: FaSSIF, RT, 30 mM DMSO stock, value close to or above 300 μM may mean solubility at or above 300 μM
Protocol: Solubility measurements were taken according to the steps as followed:
2. Preparation of Stock Solution: The stock solution of test compounds was prepared in dimethyl sulfoxide (DMSO) at the concentration of 30 mM. The stock solution of control compound was prepared in DMSO at the concentration of 30 mM. Diclofenac sodium was used as positive control in the assay.
3. Procedures for Solubility Determination: 10 μL stock solution of each compound was placed in order into their proper 96-well rack, followed by adding 990 μL of FaSSIF into each vial of the cap-less Solubility Sample plate. This study was performed in duplicate. One stir stick was added to each vial and then vials were sealed using a molded PTDE/SIL 96-Well Plate Cover. The Solubility Sample plate was transferred to the Thermomixer Comfort plate shaker and incubated at RT for 2 hours with shaking at 1100 rpm. After 2 hours incubation, stir sticks were removed using a big magnet and all samples from the Solubility Sample plate were transferred into the filter plate. All the samples were filtered by using the Vacuum Manifold. An aliquot of 10 μL of the filtered samples were diluted with 980 μL of methanol and 10 μL of DMSO. The dilution factor might be changed according to the solubility value and the LC/MS signal response.
5. Sample Analysis: Samples were analyzed by LC-MS/MS.
[formula] • with DF as the dilution factor.

[3] = only time points within the initial rate used where fast then slow disappearance, read-out: T1/2
[4] = PBS (pH 6.5), 30 min, read-out: Remaining Percentage
[5] = PBS (pH 6.5), 60 min, read-out: Remaining Percentage
[6] = PBS (pH 6.5), 120 min, read-out: Remaining Percentage
[7] = PBS (pH 6.5), 240 min, read-out: Remaining Percentage
[8] = PBS (pH 6.5), SGF with pepsin, SGF without pepsin
[9] = SGF with pepsin, 30 min, read-out: Remaining Percentage
[10] = SGF with pepsin, 60 min, read-out: Remaining Percentage
[11] = SGF with pepsin, 120 min, read-out: Remaining Percentage
[12] = SGF with pepsin, 240 min, read-out: Remaining Percentage
[13] = SGF without pepsin, 30 min, read-out: Remaining Percentage
[14] = SGF without pepsin, 60 min, read-out: Remaining Percentage
[15] = SGF without pepsin, 120 min, read-out: Remaining Percentage
[16] = SGF without pepsin, 240 min, read-out: Remaining Percentage
[17] = SGF without pepsin, if calculated T1/2 < 0, reported as 9999 min, read-out: T1/2
[18] = text statement of Table 4 value, read-out: half-life in mouse plasma
[19] = SGF with pepsin, if calculated T1/2 < 0, reported as 9999 min, read-out: T1/2

Structure (SMILES)	Remaining Percentage (in vitro)	remaining at 0.25 h (in vitro)	remaining at 0.5 h (in vitro)	remaining at 1 h (in vitro)	remaining at 2 h (in vitro)	half-life (in vitro; [3])	Remaining Percentage (physchem [1]; SGF with pepsin, 0 min)	remaining at 0.5 h (physchem [1]; [9])	remaining at 1 h (physchem [1]; [10])	remaining at 2 h (physchem [1]; [11])	remaining at 4 h (physchem [1]; [12])	Remaining Percentage (physchem [1]; SGF without pepsin, 0 min)	remaining at 0.5 h (physchem [1]; [13])	remaining at 1 h (physchem [1]; [14])	remaining at 2 h (physchem [1]; [15])	remaining at 4 h (physchem [1]; [16])	solubility kinetic at 2 h (physchem [2])	activity at select serotonin receptors (serotonin receptors)	further results
O=C(O)CCCc1ccc(N(CCCl)CCCl)cc1 [Chlorambucil, reference compound]	–	–	–	–	–	–	–	–	–	–	–	–	–	–	–	–	–	–	Remaining Percentage (physchem [1]; pH 6.5): 100.00%; half-life (physchem [1]; pbs, pH 6.5): 0.694 h; remaining at 0.5 h (physchem [1]; pbs, pH 6.5): 59.4%; remaining at 1 h (physchem [1]; pbs, pH 6.5): 37.1%; remaining at 2 h (physchem [1]; pbs, pH 6.5): 13.6%; remaining at 4 h (physchem [1]; pbs, pH 6.5): 1.83%
CC(C)[N+](C)(CCOC(=O)C1c2ccccc2Oc2ccccc21)C(C)C [Propantheline, reference compound]	100.00%	86%	67.2%	35%	8.48%	32.8 min	–	–	–	–	–	–	–	–	–	–	–	–	–
COc1ccc2[nH]cc(CCN(C)C)c2c1 [Compound 5-MeO-DMT, 5-methoxy-DMT]	–	–	–	–	–	–	–	–	–	–	–	–	–	–	–	–	–	–	activity at select serotonin receptors (serotonin receptors; bind select serotonin receptors in the active state): agonists or partial agonists
CN(C)C(=O)OC[N+](C)(C)CCc1c[nH]c2ccccc12 [Compound 1, N-(((dimethylcarbamoyl)oxy)methyl)-2-(1H-indol-3-yl)-N,N-dimethylethan-1-aminium]	100.00%	97.5%	92.6%	90.2%	58.3%	156 min	100.00%	101%	100%	97.2%	108%	100.00%	105%	100%	104%	100%	290 µM	–	Remaining Percentage (physchem [1]; PBS (pH 6.5), 0 min): 100.00%; remaining at 0.5 h (physchem [1]; [4]): 97.7%; remaining at 1 h (physchem [1]; [5]): 108%; remaining at 2 h (physchem [1]; [6]): 107%; remaining at 4 h (physchem [1]; [7]): 108%; Stability in the environment of a stomach and in the presence of pepsin (physchem [1]; [8]): does not degrade in the environment of a stomach nor in the presence of pepsin; half-life (physchem [1]; [17]): 261 h; half-life (in vitro; [18]): 155 min
CN(C)CCc1c[nH]c2cccc(OP(=O)(O)O)c12 [psilocybin]	–	–	–	–	–	–	–	–	–	–	–	–	–	–	–	–	–	agonists or partial agonists	–
CC(C)(C)C(=O)OC[N+](C)(C)CCc1c[nH]c2ccccc12 [Compound 2, 2-(1H-indol-3-y1)-N,N-dimethy1-N-((pivaloyloxy)methyl)ethan-1-aminium]	100.00%	24.4%	7.66%	1.13%	0%	9.41 min	100.00%	94.3%	104%	96.6%	96.1%	100.00%	90.7%	97.3%	104%	104%	314 µM	–	Remaining Percentage (physchem [1]; PBS (pH 6.5), 0 min): 100.00%; remaining at 0.5 h (physchem [1]; [4]): 97.4%; remaining at 1 h (physchem [1]; [5]): 101%; remaining at 2 h (physchem [1]; [6]): 98.3%; remaining at 4 h (physchem [1]; [7]): 95.3%; Stability in the environment of a stomach and in the presence of pepsin (physchem [1]; [8]): does not degrade in the environment of a stomach nor in the presence of pepsin; half-life (physchem [1]; PBS (pH 6.5), if calculated T1/2 < 0, reported as 9999 min, read-out: T1/2): 63.2 h; half-life (physchem [1]; [19]): 88.8 h; half-life (in vitro; [18]): 9.4 min
CN(C)CCc1c[nH]c2cccc(O)c12 [psilocin, 4-hydroxy-DMT]	–	–	–	–	–	–	–	–	–	–	–	–	–	–	–	–	–	agonists or partial agonists	–
O=C(O)Cc1ccccc1Nc1c(Cl)cccc1Cl [Diclofenac, reference compound]	–	–	–	–	–	–	–	–	–	–	–	–	–	–	–	–	276 µM (≈ 81.7 µg/mL)	–	–
CN(C)CCc1c[nH]c2ccccc12 [DMT, N, N-dimethyltryptamine]	–	–	–	–	–	–	–	–	–	–	–	–	–	–	–	–	–	agonists or partial agonists	–
CC[C@H]1OC(=O)[C@H](C)[C@@H](O[C@H]2C[C@@](C)(OC)[C@@H](O)[C@H](C)O2)[C@H](C)[C@@H](O[C@@H]2O[C@H](C)C[C@H](N(C)C)[C@H]2O)[C@](C)(O)C[C@@H](C)C(=O)[C@H](C)[C@@H](O)[C@]1(C)O [Erythromycin, reference compound]	–	–	–	–	–	–	100.00%	52.6%	30.5%	9.74%	1%	100.00%	54.5%	29.1%	9.44%	1.05%	–	–	half-life (physchem [1]; [19]): 0.6 h; half-life (physchem [1]; [17]): 0.61 h
